Test results as given in a melting point compilation (Tetko et al.; mined from patent text by program, amines drawn as free bases though some values may be those of a salt).

melting point [°C]	SMILES
187 to 188	Cc1c(Br)c2c(c(C)c1NC(=O)OC(C)(C)C)C(O)C(C)(C)O2 (stereo not given)
43 to 44	CCOC(=O)/C=C(\C)c1cccc([N+](=O)[O-])c1
173 to 175	CNC(=S)n1nc(Cc2ccccc2)nc1N
93	CCOC(=O)C1CCN(C(=O)OCC)c2ccccc2C1O (stereo not given)
224 to 225	CC(C)n1c(C=O)c(-c2ccc(F)cc2)c(-c2ccccc2)c1C(=O)Nc1cccc(S(N)(=O)=O)c1
159 to 160	CCS(=O)(=O)Nc1nc(CN2CCN(C(c3ccccc3)c3ccccc3)CC2)cs1
108 to 110	CCOc1cccc(NC(=O)Nc2ccc(N3CCN(C(=O)Nc4ccc(OCCO)cc4C(F)(F)F)CC3)cc2)c1
297	COc1ccc(-c2[nH]nc3c2C(=O)c2c(NC(=O)C4CCC4)cccc2-3)cc1
121 to 123	CN(C)C=Nc1ccncc1O
166 to 168	OCC12COC(O1)C(O)C(O)C2O (stereo not given)
367 to 374	CN1Cc2c(C(=O)N3CCN(C(=O)c4ncn5c4CN(C)C(=O)c4cc(Cl)ccc4-5)CC3)ncn2-c2ccc(Cl)cc2C1=O
72 to 73	CC(C)n1nc(Br)c([N+](=O)[O-])c1Br
138	Nn1nc(-c2ccccc2)cc1OCCN1CCCC1
157 to 160	N=C(N)Nc1ccc(CCCC(=O)NC(COCc2ccccc2)C(=O)NCCCC(CCCNC(=O)OCc2ccccc2)NC(=O)OCc2ccccc2)cc1 (stereo not given)
119 to 120	NS(=O)(=O)c1cnc(S(=O)(=O)c2ccccc2)s1
155 to 156	CCOC(=O)c1nc2n(c(=O)c1O)CCN2CCO
292 to 293	Cc1c(N)c(=O)n2c3c(cc(C(O)(C(F)(F)F)C(F)(F)F)cc13)CC2
98 to 99	CCOC(=O)c1cn(Cc2ccc(Oc3ccccc3)cc2)nc1OCc1ccc(OCc2nc(-c3ccco3)oc2C)c(OC)c1
138 to 139	Cn1nccc1CCS(=O)Cc1ccc(OCc2coc(/C=C/c3ccc(OC(F)(F)F)cc3)n2)cc1 (stereo not given)
173 to 174	CCOC(=O)c1cn(N)c2nc(C)ccc2c1=O
> 200	O=C(CCc1cccnc1)Nc1cccc(-c2ccnc3c(C(=O)c4cccs4)cnn23)c1
93 to 94	CCOC(=O)CC(=O)c1ccc(NC(C)=O)cc1
263 to 265	OC[C@@H](O)CCOc1ccc(-c2nc3c4ccccc4c4ccccc4c3[nH]2)cc1

melting point [°C]	SMILES
98 to 100	O=C1C(=O)c2ccccc2C2=C1SCC(CN1CCC(O)CC1)O2 (stereo not given)
102 to 104	CC(=Cc1cc(O)c(O)c([N+](=O)[O-])c1)C(C)O (stereo not given)
202	CS(=O)(=O)c1nccc(-n2nnc3ccccc32)n1
206 to 208	Cc1c(Cl)ccc(C(N)=O)c1N
252 to 257	COCc1ccc(-c2cn(-c3cc(C(=O)OC)c(NO)cc3C(F)(F)F)cn2)cc1
147 to 150	C1COCCOCCNCCOCC2(COCCN1)COC2
205 to 206	Nc1ncnc2c1c(-c1ccc(Oc3ccccc3)cc1)c(Br)n2C1CCOC1 (stereo not given)
130 to 132	CCCCOc1nc(-c2ccc(=O)n(C(C)C)n2)c(-c2ccccc2)nc1N
305 to 306	O=C(O)CCCOc1ccc(N2CCN(c3ccncc3)CC2)cc1
105	COC(=O)c1cc(-c2ccc(C)cc2)c(O)c(C(C)(C)C)c1
114 to 116	Cc1ccc(S(=O)(=O)CCCC(=O)c2ccc(F)cc2)cc1
135	Cc1cc2c(c(C)c1O)CCC(C)(C#N)O2 (stereo not given)
193 to 195	CC(C)c1ccc(-c2nc(-c3cccc(C(=O)O)c3)cs2)cc1
151 to 154	O=C(O)C1C=CCN2C(=O)C(CCS)(Cc3ccccc3)C(=O)N12 (stereo not given)
144 to 147	COC(=O)COC1c2ccccc2COc2ccc(OCc3ccc4cc(Cl)ccc4n3)cc21 (stereo not given)
125	CC(c1ccc(F)c(Br)c1)N(O)C(N)=O (stereo not given)
156 to 157	CCOC(=O)c1c(CN(CC)CC)nc2sc3ncccc3c2c1-c1ccc(OC)c(OC)c1
232 to 234	COc1ccc(C=C2c3ccccc3C(=NOCC(=O)O)c3ccccc32)cc1O
142 to 144	COc1ccc2c(C(=O)N(C=O)CC(=O)O)cccc2c1C(F)(F)F
153 to 155	CC(=O)Nc1ccccc1CSc1nccn1-c1ccncc1
162 to 164	CS(=O)(=O)c1ccc(C(=O)C(C#N)C(=O)C2CC2)c(Cl)c1-c1nccs1 (stereo not given)
105 to 108	Cc1cc(Cl)ccc1NC(=O)C(=O)N1CCC(Cc2ccccc2)CC1
191	O=C(CC(F)(F)F)NNc1nccc(-c2ccc(OC3CCOCC3)c(Cl)c2)c1Cl

melting point [°C]	SMILES
220 to 224	FC(F)(F)c1ccc2nc(N3CCN(c4ccncc4C(F)(F)F)CC3)[nH]c2c1
160 to 162	COc1cc2c(cc1F)C1(CO2)C(=O)N(Cc2ccccc2)c2ccccc21 (stereo not given)
120 to 121	Cc1ncoc1-c1ccc(C#N)cc1
108 to 110	O=C1NC(=O)C(c2cn3c4c(cccc24)CCC3)C1c1cccc(O)c1 (stereo not given)
280 to 284	O=P(Cc1ccc2ccccc2c1-c1c(CP(=O)(c2cccc(F)c2)c2cccc(F)c2)ccc2ccccc12)(c1cccc(F)c1)c1cccc(F)c1
156 to 157	Cc1cc(SCc2ccc(-c3ccc(C(F)(F)F)cn3)cc2)c2c(c1OCC(=O)O)CCCO2
232 to 233	Clc1cn2cc(Cl)c(Cl)c(Cl)c2n1
139 to 140	CC#CN1N=C(c2ccc(F)cc2)c2cc(Cl)ccc2CS1(=O)=O
128 to 129	CCOc1cc(OCCCc2cn(-c3ccc(C(F)(F)F)cn3)nc2OC(C)C)ccc1CCC(=O)O
50.1 to 51	CCCCCOC(=O)Oc1ccc(-c2ccc(C#N)cc2)cc1
239 to 241	Cc1cc(CNC(=O)c2cc(-n3cnn(Cc4ccc(F)cc4)c3=O)n[nH]2)[nH]n1
103	N#CSc1cc([N+](=O)[O-])ccc1Cl
66 to 70	Cc1cc(C)n(-c2nc(NC3Cc4ccccc4C3)cc(N3CCOCC3)n2)n1
76 to 79.6	CC(C)(C)OC(=O)NCC1C2CN(C(=O)C(O)(c3ccccc3)C3CCCC3)CC12 (stereo not given)
> 310	O=C(O)c1cc(=O)c2cc3c(=O)cc(C(=O)O)[nH]c3c(Cl)c2[nH]1
158 to 160	CCCc1ccccc1Sc1c(O)cc(-c2ccccc2)oc1=O
124 to 126	CNc1nc(-c2cccc(NC(=O)c3cccc(Cl)c3)c2)c2cc(OC)c(OC)cc2n1
129 to 130	COC(=O)N1C(C(=O)O)CSC1c1ccccc1 (stereo not given)
163 to 166	Nc1cccc(Cn2c(-c3ccc(C4=CC=CNC4)cc3)ccc2-c2ccccc2Cl)n1
224 to 226	CCCn1c(=O)c2c(NC)n[nH]c2n(CCOCc2ccccc2)c1=O
244	N#Cc1ccc(C(=O)N[C@H]2CC[C@H](CCN3CCN(c4nccc5c4CCO5)CC3)CC2)cc1

SMILES	melting point [°C]
CC(=O)C1CCC2C3CCC4CC(O)C(OCCC#N)CC4(C)C3C(=O)CC12C (stereo not given)	194 to 196
CC(C)CCn1cc(C(=O)O)c2ccc(Cl)cc21	53 to 55
N#CSc1nsnc1Cl	63 to 65
